Where two headings read alike, the source gives them in different places.
What was measured:
hACE2 receptor = biological target: T1, hACE2 receptor (Homo sapiens, UniProt Q9BYF1); format: binding; conditions: for Binging with ACE2 (% of control ± SD): Table 3
T1 construct: purchased GenScript

[1] = biological target: T2, RBD of SARS-CoV-2 spike protein binding to hACE2 receptor (Severe acute respiratory syndrome coronavirus 2, UniProt P0DTC2); experiment: biochemical
T2 construct: purchased GenScript

[2] = test system: SARS-CoV-2 spike protein pseudo-typed virions; format: cell-based
[3] = test system: SARS-CoV-2 spike protein pseudo-typed virions; format: cell-based; remark: listed apart in the source
IL-6 secretion = experiment: Interleukin 6 (IL-6) assay in HSAEpC (ELISA); format: cell-based, human; conditions: LPS 5 mcg/ml
Protocol: Interleukin 6 (IL-6) assay: Human Small Airways Epithelial Cells (HSAEpC) were supplied by ATCC and cultured in Small Airways Epithelial Cells culture medium (ATCC). SAEC cells were seeded in six-well plates covered with collagen at 6 passage and grown to confluent layer. […] After 72 hours incubation conditioned media were collected and IL-6 content was measured using R&D Systems Human IL6 ELISA assay in accordance with the manufacture's protocol. Results were calculated with Microsoft Excel software and presented as a percentage of unsupplemented controls (an average of three repetitions+/−standard deviation).

T1 sequence (Q9BYF1 18-740): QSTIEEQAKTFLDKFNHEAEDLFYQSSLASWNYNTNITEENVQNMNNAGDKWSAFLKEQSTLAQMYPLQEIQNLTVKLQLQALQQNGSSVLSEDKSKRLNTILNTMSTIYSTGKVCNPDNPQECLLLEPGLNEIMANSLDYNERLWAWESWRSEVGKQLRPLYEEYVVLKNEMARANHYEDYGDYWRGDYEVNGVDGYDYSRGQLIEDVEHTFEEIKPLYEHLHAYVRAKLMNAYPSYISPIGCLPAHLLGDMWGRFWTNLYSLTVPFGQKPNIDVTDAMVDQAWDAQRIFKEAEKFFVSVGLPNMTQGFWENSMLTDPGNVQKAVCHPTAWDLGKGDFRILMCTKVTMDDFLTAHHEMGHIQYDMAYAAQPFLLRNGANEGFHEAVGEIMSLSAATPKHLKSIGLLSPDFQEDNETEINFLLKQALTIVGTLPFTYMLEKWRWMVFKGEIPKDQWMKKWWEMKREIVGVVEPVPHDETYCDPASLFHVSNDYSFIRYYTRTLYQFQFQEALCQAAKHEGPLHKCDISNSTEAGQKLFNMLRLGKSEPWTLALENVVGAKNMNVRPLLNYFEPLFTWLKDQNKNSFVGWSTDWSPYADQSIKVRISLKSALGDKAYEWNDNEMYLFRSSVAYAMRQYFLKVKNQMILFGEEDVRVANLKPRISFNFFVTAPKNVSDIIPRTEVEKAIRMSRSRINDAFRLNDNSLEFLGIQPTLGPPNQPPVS

## COc1ccc(Cc2nccc3cc(OC)c(OC)cc23)cc1OC [Papaverine, reference compound]
hACE2 receptor; tested at 0.1 mg/ml
  Binging with ACE2 (% of control ± SD): 6.5 ± 3.7 % of control

## Oc1cc(O)cc(O)c1 [Phloroglucinol]
hACE2 receptor; tested at 0.1 mg/ml
  Binging with ACE2 (% of control ± SD): 5.9 ± 3.4 % of control

## COc1cc(/C=C/c2ccc(O)cc2)cc(OC)c1 [Pterostilbene]
hACE2 receptor; tested at 0.1 mg/ml
  Binging with ACE2 (% of control ± SD): 9.4 ± 2.5 % of control

## O=c1c(O)c(-c2ccc(O)c(O)c2)oc2cc(O)cc(O)c12 [Quercetin]
hACE2 receptor; tested at 0.1 mg/ml
  Binging with ACE2 (% of control ± SD): 7.8 ± 3.3 % of control

## O=C(/C=C/c1ccc(O)c(O)c1)O[C@H](Cc1ccc(O)c(O)c1)C(=O)O [Rosmarinic acid]
hACE2 receptor; tested at 0.1 mg/ml
  Binging with ACE2 (% of control ± SD): 7.9 ± 1.8 % of control

## C[C@@H]1O[C@@H](OC[C@H]2O[C@@H](Oc3c(-c4ccc(O)c(O)c4)oc4cc(O)cc(O)c4c3=O)[C@H](O)[C@@H](O)[C@@H]2O)[C@H](O)[C@H](O)[C@H]1O [Rutin]
hACE2 receptor; tested at 0.1 mg/ml
  Binging with ACE2 (% of control ± SD): 4.8 ± 2.0 % of control

## O=C(O)[C@H]1O[C@@H](Oc2cc3oc(-c4ccc(O)cc4)cc(=O)c3c(O)c2O)[C@H](O)[C@@H](O)[C@@H]1O [Scutellarin]
hACE2 receptor; tested at 0.1 mg/ml
  Binging with ACE2 (% of control ± SD): 7.5 ± 1.7 % of control

## O=C(OC[C@H]1O[C@@H](OC(=O)c2cc(O)c(O)c(OC(=O)c3cc(O)c(O)c(O)c3)c2)[C@H](OC(=O)c2cc(O)c(O)c(OC(=O)c3cc(O)c(O)c(O)c3)c2)[C@@H](OC(=O)c2cc(O)c(O)c(OC(=O)c3cc(O)c(O)c(O)c3)c2)[C@@H]1OC(=O)c1cc(O)c(O)c(OC(=O)c2cc(O)c(O)c(O)c2)c1)c1cc(O)c(O)c(OC(=O)c2cc(O)c(O)c(O)c2)c1 [Tannic acid]
hACE2 receptor; tested at 0.1 mg/ml
  Binging with ACE2 (% of control ± SD): 7.2 ± 2.3 % of control

## O=c1c(O)cc([C@H]2Oc3cc(O)cc(O)c3C[C@H]2O)cc2c([C@H]3Oc4cc(O)cc(O)c4C[C@H]3O)cc(O)c(O)c12 [Theafalvin]
[1]
  Binding to RBD (% of control ± DS): 27.3 ± 1.4 % of control
hACE2 receptor; Table 4, tested at 0.1 mg/ml
  Binging to ACE2 (% of control ± DS): 7.9 ± 1.9 % of control

## Oc1ccc(/C=C/c2cc(O)cc(O)c2)cc1 [Trans-resveratrol]
hACE2 receptor; tested at 0.1 mg/ml
  Binging with ACE2 (% of control ± SD): 5.5 ± 2.4 % of control

## CC(=O)c1c(O)c(C)c(O)c2c1OC1=CC(=O)C(C(C)=O)C(=O)C12C (centres unmarked) [Usnic acid]
hACE2 receptor; tested at 0.1 mg/ml
  Binging with ACE2 (% of control ± SD): 5.7 ± 1.7 % of control

## (+)-epigallocatechin gallate
[1]
  Binding to RBD (% of control ± DS): 87.5 ± 6.8 % of control
hACE2 receptor; Table 4, tested at 0.1 mg/ml
  Binging to ACE2 (% of control ± DS): 5.9 ± 2.0 % of control

## (+)-gallocatechin
[1]
  Binding to RBD (% of control ± DS): 69.5 ± 2.8 % of control
hACE2 receptor; Table 4, tested at 0.1 mg/ml
  Binging to ACE2 (% of control ± DS): 5.7 ± 1.6 % of control

## (−)-catechin gallate
[1]
  Binding to RBD (% of control ± DS): 37.4 ± 4.7 % of control
hACE2 receptor; Table 4, tested at 0.1 mg/ml
  Binging to ACE2 (% of control ± DS): 8.6 ± 1.5 % of control

## (−)-gallocatechin
[1]
  Binding to RBD (% of control ± DS): 73.5 ± 6.7 % of control
hACE2 receptor; Table 4, tested at 0.1 mg/ml
  Binging to ACE2 (% of control ± DS): 3.9 ± 2.3 % of control

## (−)-gallocatechin gallate
[1]
  Binding to RBD (% of control ± DS): 75.4 ± 5.6 % of control
hACE2 receptor; Table 4, tested at 0.1 mg/ml
  Binging to ACE2 (% of control ± DS): 7.5 ± 1.7 % of control

## D-limonene
[1]
  Binding with RBD (% of control ± SD): 27.2 ± 6.4 % of control
hACE2 receptor; tested at 0.1 mg/ml
  Binging with ACE2 (% of control ± SD): 6.4 ± 1.5 % of control

## Hesperidin
[1]
  Binding with RBD (% of control ± SD): 90.3 ± 3.8 % of control
hACE2 receptor; tested at 0.1 mg/ml
  Binging with ACE2 (% of control ± SD): 8.3 ± 2.3 % of control

## L-sulforaphane
[1]
  Binding to RBD (% of control ± DS): 30.2 ± 3.6 % of control
hACE2 receptor
  Binging to ACE2 (% of control ± DS): 6.7 ± 1.5 % of control

## Palmatine
[1]
  Binding with RBD (% of control ± SD): 40.4 ± 6.1 % of control
hACE2 receptor; tested at 0.1 mg/ml
  Binging with ACE2 (% of control ± SD): 8.5 ± 2.7 % of control

## Procyanidin B2
[1]
  Binding with RBD (% of control ± SD): 31.1 ± 3.6 % of control
hACE2 receptor; tested at 0.1 mg/ml
  Binging with ACE2 (% of control ± SD): 5.8 ± 2.7 % of control

## Procyanidin B3
[1]
  Binding with RBD (% of control ± SD): 32.3 ± 3.7 % of control
hACE2 receptor; tested at 0.1 mg/ml
  Binging with ACE2 (% of control ± SD): 7.8 ± 2.7 % of control

## Schisandrin
[1]
  Binding with RBD (% of control ± SD): 22.4 ± 3.3 % of control
hACE2 receptor; tested at 0.1 mg/ml
  Binging with ACE2 (% of control ± SD): 5.1 ± 2.7 % of control

## Theaflavine-3′3-digallate
[2]
  concentration from which inhibition of transduction is statistically significant: 10 µg/mL
[3]
  inhibition of pseudo-typed virion binding to hACE2/A549 (in words): similarly inhibited binding

## Urolithin A
[1]
  Binding with RBD (% of control ± SD): 31.1 ± 4.6 % of control
hACE2 receptor; tested at 0.1 mg/ml
  Binging with ACE2 (% of control ± SD): 8.8 ± 1.6 % of control

## lipopolysaccharide
IL-6 secretion
  increase of IL-6 secretion: 43%

Reference: patent publication US20220304976A1, “Method of simultaneously treating viral disease caused coronavirus, its variants and mutants using a pharmaceutical micronutrient composition” (priority 2021, published 2022)
